Entries after “also recorded” stand apart in the source; their conditions may differ.
Legend:
calcium entry channels = assay: Fura-2 fluorescence ratio, sustained calcium entry signals in mammalian cells (FIG. 19C); type: cell-based
IB3-1 CF cells = assay: SPQ halide fluorescence assay of Cl- efflux; type: cell-based, human; conditions: Na+- and Mg2+-free vehicle, 3 mM Ca2+, pH 7.9
Procedure: Modifications to this method involved the use of NaCl at the beginning and end of protocols. Agonists were tested in NMDGNO3-containing solution (as above for Ca^2+ assays).
In our modified saline vehicle that was devoid of Na+ and Mg^2+ and enriched in Ca^2+ (3 mM) along with modifications in the halides (Cl− substituted with iodide to quench the SPQ dye and nitrate to unquench), ATP plus zinc or zinc alone was added to IB3-1 CF cells and halide efflux was rescued in these cells. The effects were dependent upon an alkaline extracellular pH (pH 7.9) and the presence of extracellular Ca^2+. In essence, the rescue of Cl− transport (measured with a different halide in this case) was dependent upon the same chemical conditions as the zinc-induced Ca^2+ entry.

[1] = tested on: P2X receptor Ca^2+ entry channels; assay: Fura-2/AM fluorescence imaging of cytosolic Ca2+ in IB3-1 CF airway epithelial cells; type: cell-based, human
[2] = tested on: non-mucoid and mucoid Pseudomonas aeruginosa; assay: Bacterial growth in liquid LB medium and on LB-agar plates; type: cell-based
[3] = tested on: INS-1 rat pancreatic β cells; assay: Fura-2 fluorescence assay of cell calcium in INS-1 cells; type: cell-based; conditions: Na+- and Mg2+-free Ringer, zinc alone 1-50 micromolar
Procedure: Cytosolic Ca^2+ concentration was measured with dual excitation wavelength fluorescence microscopy (Deltascan, Photon Technologies, Princeton, N.J.) after cells were loaded with the permeant form of the fluorescence dye, Fura-2-acetoxymethyl ester (Fura-2-AM; Teflabs, Austin, Tex., USA). Fura-2 fluorescence was measured at an emission wavelength of 510 nm in response to excitation wavelength of 340 nm and 380 nm, alternated at a rate of 50 Hz by a computer-controlled chopper assembly. Ratios (340 nm/380 nm) were calculated at a […] using PTI software. Cells were incubated in Dulbecco's phosphate buffered saline containing 2 mM CaCl2 and 1 mM MgCl2 in the presence of 5 μM Fura2-AM and 1 mg/ml Pluronic F-127 dissolved in DMSO for 120 min to allow loading of the dye into the cells. After loading, coverslips were rinsed at least for 10 min in Dulbecco's phosphate buffered saline to remove extracellular Fura 2-AM and the surfactant, and were positioned in the cuvette at a 45° angle from the excitation light. […] Fluorescence intensities at both wavelengths were assessed and only those preparations in which there were >200,000 counts/s for both wavelengths were used for experiments. At the beginning of each experiment, cells were perfused with solution A (see below) and the fluorescence ratio was monitored for at least 100 sec to establish a stable baseline value. […]

ENaC [4] = molecular target: T1, ENaC (Mus musculus, UniProt Q61180+Q9WU38+Q9WU39); assay: Ussing chamber / voltohmmeter recordings of ENaC-mediated Na+ absorption in airway and PKD collecting duct monolayers; type: cell-based; conditions: for concentrations required for inhibition in ISC recordings / doses inhibitory in PD assays: ARPKD sodium hyperabsorption; for doses inhibitory in PD assays: VTE/PD
T1 construct: from tissue; host or cells: nasal mucosa of living control, Cincinnati bitransgenic CF and delF508 CF mice
T1 sequence (Q61180 1-699): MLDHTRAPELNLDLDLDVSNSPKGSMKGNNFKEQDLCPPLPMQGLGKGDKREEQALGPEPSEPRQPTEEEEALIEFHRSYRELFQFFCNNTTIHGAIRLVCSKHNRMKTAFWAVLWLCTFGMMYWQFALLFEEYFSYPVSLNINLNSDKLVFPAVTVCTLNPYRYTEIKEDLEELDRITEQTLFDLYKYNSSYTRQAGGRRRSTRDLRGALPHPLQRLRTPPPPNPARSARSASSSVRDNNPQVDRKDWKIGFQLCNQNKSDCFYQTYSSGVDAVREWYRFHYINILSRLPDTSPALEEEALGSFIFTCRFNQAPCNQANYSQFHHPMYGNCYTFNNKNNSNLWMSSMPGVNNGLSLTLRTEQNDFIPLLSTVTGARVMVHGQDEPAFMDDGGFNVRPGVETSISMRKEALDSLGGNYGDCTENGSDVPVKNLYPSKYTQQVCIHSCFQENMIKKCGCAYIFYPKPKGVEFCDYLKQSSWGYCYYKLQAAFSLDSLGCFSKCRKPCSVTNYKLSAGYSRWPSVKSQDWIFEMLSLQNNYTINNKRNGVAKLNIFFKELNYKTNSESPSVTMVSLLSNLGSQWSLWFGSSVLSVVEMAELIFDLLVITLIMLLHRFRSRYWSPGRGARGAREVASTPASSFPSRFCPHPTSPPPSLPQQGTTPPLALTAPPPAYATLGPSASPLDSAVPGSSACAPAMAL
T1 sequence (Q9WU38 1-638): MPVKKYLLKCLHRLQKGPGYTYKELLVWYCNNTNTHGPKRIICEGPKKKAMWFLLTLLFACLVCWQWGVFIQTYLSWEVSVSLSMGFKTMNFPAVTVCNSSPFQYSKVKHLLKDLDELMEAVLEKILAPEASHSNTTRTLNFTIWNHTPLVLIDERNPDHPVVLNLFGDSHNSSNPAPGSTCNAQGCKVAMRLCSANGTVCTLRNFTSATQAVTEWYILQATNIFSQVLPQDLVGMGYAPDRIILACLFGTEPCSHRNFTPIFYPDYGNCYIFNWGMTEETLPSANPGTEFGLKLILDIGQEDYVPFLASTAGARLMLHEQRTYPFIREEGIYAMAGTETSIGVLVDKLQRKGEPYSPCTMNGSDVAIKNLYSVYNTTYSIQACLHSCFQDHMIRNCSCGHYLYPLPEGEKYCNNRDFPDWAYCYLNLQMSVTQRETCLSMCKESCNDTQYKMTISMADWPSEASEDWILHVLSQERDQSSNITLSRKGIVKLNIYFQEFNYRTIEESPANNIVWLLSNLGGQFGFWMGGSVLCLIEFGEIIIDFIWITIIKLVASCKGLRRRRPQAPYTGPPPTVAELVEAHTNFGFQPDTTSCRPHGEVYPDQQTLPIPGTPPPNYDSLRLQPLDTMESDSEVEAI
T1 sequence (Q9WU39 1-655): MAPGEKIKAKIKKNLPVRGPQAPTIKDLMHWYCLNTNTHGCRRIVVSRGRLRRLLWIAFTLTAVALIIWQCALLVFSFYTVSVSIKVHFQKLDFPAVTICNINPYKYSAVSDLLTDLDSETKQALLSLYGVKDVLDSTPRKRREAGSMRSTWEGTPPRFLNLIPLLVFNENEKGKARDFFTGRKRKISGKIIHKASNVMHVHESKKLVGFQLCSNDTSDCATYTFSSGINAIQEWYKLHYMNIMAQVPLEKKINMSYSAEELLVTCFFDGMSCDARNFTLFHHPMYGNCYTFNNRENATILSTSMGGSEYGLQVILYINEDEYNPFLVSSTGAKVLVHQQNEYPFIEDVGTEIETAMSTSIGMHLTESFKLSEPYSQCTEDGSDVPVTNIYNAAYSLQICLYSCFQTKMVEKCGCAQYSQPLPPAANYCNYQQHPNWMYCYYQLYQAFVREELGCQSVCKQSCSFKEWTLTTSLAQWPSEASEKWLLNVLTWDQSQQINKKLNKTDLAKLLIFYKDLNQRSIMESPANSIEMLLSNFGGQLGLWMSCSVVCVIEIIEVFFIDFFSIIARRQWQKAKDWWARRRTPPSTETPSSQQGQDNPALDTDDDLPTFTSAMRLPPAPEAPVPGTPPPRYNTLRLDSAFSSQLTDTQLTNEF

ENaC [5] = molecular target: T1, ENaC; assay: In vivo nasal potential difference, ENaC-mediated Na+ absorption
INS-1 cells = assay: ELISA of insulin secretion from INS-1 cells; type: cell-based, rat; conditions: 15 seconds to 120 minutes after stimulation
[6] = tested on: Cl− transport across the nasal mucosa; assay: In vivo nasal potential difference, rescue of Cl- secretion; set-up: species or system mouse; conditions: CF mice

C[C@H](CCC(=O)O)C[C@H](C)C[C@H](C)C(=O)/C=C(\O)[C@H](C)C[C@H](C)C/C=C/[C@@H](C)[C@@H](O)[C@@H](C)[C@@H](O)C[C@@H]1CC[C@@](C)([C@H]2CC[C@@](C)([C@@H](C)O)O2)O1 [ionomycin]
Fura-2 fluorescence ratio, sustained (calcium entry channels; ionomycin 2 μM): 3.4

[Cl-].[Cl-].[Zn+2] [ZnCl2, zinc chloride]
halide efflux / Cl- permeability in CF cells (IB3-1 CF cells): restored Cl− permeability

C/C=C(/C)C(=O)O[C@H]1C(C)=C2[C@H]([C@@H]1OC(=O)CCCCCCC)[C@@](C)(OC(C)=O)C[C@H](OC(=O)CCC)[C@@]1(O)[C@H]2OC(=O)[C@@]1(C)O [thapsigargin]
effect on zinc-induced Ca2+ transients ([1]; thapsigargin pretreatment, Ca2+-free medium): abolished
Fura-2 fluorescence ratio, transient peak (store-operated calcium channels) (calcium entry channels; thapsigargin 100 nM, ER store depletion and re-addition of extracellular calcium): 3.0

O=S(=O)([O-])[O-].O=S(=O)([O-])[O-].O=S(=O)([O-])[O-].[Fe+3].[Fe+3] [Ferric iron, ferric sulfate]
growth, iron competition experiment [2]: enhanced growth significantly

[Zn+2] [zinc]
zinc-induced increases in Ca2+ ([1]; Ca2+-free medium): small and transient
effect on cell calcium / Ca2+ entry [3]: further sustained increase in Ca^2+ entry; also recorded: small transient increase above the sustained plateau
Fura-2 fluorescence ratio, sustained calcium entry (calcium entry channels; Na+ free conditions, pH 7.9): 2.1
halide efflux / Cl- permeability in CF cells (IB3-1 CF cells): rescued
concentrations required for inhibition in ISC recordings (ENaC [4]): Millimolar
doses inhibitory in PD assays (ENaC [4]): mid-micromolar
concentration range inhibiting ENaC (ENaC [4]; Ussing chamber recordings): 50 to 100 µM
depolarization of NPD (ENaC [5]; Cincinnati bitransgenic CF mouse): ~10 mV
depolarization of NPD (ENaC [5]; control mouse, NaCl-replete lactated Ringer): 3-4 mV
depolarization of NPD (ENaC [5]; deIF508 CF mouse): 6-7 mV
IC50 ([2]; read-out: IC50, bacterial growth inhibition): 1000 to 5000 µM
insulin secretion versus glucose stimulus (INS-1 cells): even more potent stimulus than glucose

[Ni] [nickel, reference compound]
concentrations required for inhibition in ISC recordings (ENaC [4]): Millimolar
doses inhibitory in PD assays (ENaC [4]): mid-micromolar

[Cu] [copper]
effect on zinc effects (Ca2+ entry) [1]: competitively inhibit

ivermectin
effect on zinc and/or ATP induced manganese or calcium entry ([1]; included with ATP and/or zinc, Fura-2 quenching and direct Fura-2 assays): potentiated

CC(C)NCC(O)c1ccc(O)c(O)c1 (centres unmarked) [isoproterenol]
effect on nasal PD [6]: without effect

ferrous sulfate
growth, iron competition experiment [2]: inhibit
